The values that follow are results of earlier work, collected in patent US12662687B2, “Methods and compositions for the production of xylitol from xylose utilizing dynamic metabolic control” (Duke University, priority 2020, dated 2026).

Each structure is given as a SMILES string.

The data set addresses membrane bound transhydrogenase encoded by the pntAB genes (Escherichia coli, UniProt P07001+P0AB67). Particulars: competitive inhibitor, reported value.

membrane bound transhydrogenase encoded by the pntAB genes, sequence (P07001 whole entry): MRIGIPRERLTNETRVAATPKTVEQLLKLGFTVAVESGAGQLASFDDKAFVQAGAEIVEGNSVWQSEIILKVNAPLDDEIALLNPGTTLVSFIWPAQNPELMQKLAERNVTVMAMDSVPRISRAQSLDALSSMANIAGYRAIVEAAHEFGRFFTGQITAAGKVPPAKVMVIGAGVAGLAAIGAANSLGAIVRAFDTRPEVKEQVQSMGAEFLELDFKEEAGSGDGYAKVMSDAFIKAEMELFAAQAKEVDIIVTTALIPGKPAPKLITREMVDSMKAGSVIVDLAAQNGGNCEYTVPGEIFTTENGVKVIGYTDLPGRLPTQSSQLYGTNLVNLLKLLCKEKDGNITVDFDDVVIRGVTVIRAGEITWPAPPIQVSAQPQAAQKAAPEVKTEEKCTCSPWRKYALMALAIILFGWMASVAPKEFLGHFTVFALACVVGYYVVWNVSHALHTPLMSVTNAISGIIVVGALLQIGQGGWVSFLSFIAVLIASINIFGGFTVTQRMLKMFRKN
membrane bound transhydrogenase encoded by the pntAB genes, sequence (P0AB67 whole entry): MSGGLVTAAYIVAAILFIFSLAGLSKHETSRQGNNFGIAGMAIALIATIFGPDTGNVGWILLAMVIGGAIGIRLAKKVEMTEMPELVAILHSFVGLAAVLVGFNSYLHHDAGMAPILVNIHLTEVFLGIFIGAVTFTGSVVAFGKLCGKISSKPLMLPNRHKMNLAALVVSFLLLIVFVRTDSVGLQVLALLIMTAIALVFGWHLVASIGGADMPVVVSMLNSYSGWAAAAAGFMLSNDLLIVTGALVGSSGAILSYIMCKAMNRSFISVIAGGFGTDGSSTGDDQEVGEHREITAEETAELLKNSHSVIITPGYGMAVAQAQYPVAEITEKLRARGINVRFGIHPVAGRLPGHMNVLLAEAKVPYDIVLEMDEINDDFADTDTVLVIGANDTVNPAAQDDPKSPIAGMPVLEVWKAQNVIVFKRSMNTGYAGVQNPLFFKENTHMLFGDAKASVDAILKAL

For `CCCCCCCCCCCCCCCC(=O)SCCNC(=O)CCNC(=O)[C@H](O)C(C)(C)COP(=O)(O)OP(=O)(O)OC[C@H]1O[C@@H](n2cnc3c(N)ncnc32)[C@H](O)[C@@H]1OP(=O)(O)O` [Palmitoyl-CoA], the Ki is 1000 to 5000 nM.

The term Ki denotes a dissociation constant, usually derived from enzyme kinetics or from competition with a known ligand.
